Data taken from PubChem BioAssay AID2060886 (Molecular Pharmacology Branch, DTP, NCI, 2025).

Tested on: 653999-131-R-J2-PDC complex spheroids, growth inhibition
Experiment: Anticancer human tumor 653999-131-R-J2-PDC patient-derived lung adenocarcinoma cell line growth inhibition [RAS]
Conditions: for IC50: curve of first compound; for viability, T/C: stronger effect = lower value
In short: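 Multi-cell-type spheroids: tumor cells plus HUVEC endothelial cells and mesenchymal stem cells. RAS-pathway inhibitors were combined with targeted agents, each dosed in half-log steps down from clinical Cmax, or from 10 microM when Cmax was unknown.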

[1] = second compound 0.00316 µM, first compound 0.0316 µM
[2] = second compound 0.00316 µM, first compound 0.1 µM
[3] = second compound 0.00316 µM, first compound 0.316 µM
[4] = second compound 0.00316 µM, first compound 1 µM
[5] = second compound 0.01 µM, first compound 0.0316 µM
[6] = second compound 0.01 µM, first compound 0.1 µM
[7] = second compound 0.01 µM, first compound 0.316 µM
[8] = second compound 0.01 µM, first compound 1 µM
[9] = second compound 0.0316 µM, first compound 0.00316 µM
[10] = second compound 0.0316 µM, first compound 0.01 µM
[11] = second compound 0.0316 µM, first compound 0.0316 µM
[12] = second compound 0.0316 µM, first compound 0.1 µM
[13] = second compound 0.0316 µM, first compound 0.316 µM
[14] = second compound 0.0316 µM, first compound 1 µM
[15] = second compound 0.1 µM, first compound 0.00316 µM
[16] = second compound 0.1 µM, first compound 0.01 µM
[17] = second compound 0.1 µM, first compound 0.0316 µM
[18] = second compound 0.1 µM, first compound 0.1 µM
[19] = second compound 0.1 µM, first compound 0.316 µM
[20] = second compound 0.1 µM, first compound 1 µM
[21] = second compound 0.316 µM, first compound 0.00316 µM
[22] = second compound 0.316 µM, first compound 0.01 µM
[23] = second compound 0.316 µM, first compound 0.0316 µM
[24] = second compound 0.316 µM, first compound 0.1 µM
[25] = second compound 0.316 µM, first compound 0.316 µM
[26] = second compound 0.316 µM, first compound 1 µM
[27] = second compound 1 µM, first compound 0.00316 µM
[28] = second compound 1 µM, first compound 0.01 µM
[29] = second compound 1 µM, first compound 0.0316 µM
[30] = second compound 1 µM, first compound 0.1 µM
[31] = second compound 1 µM, first compound 0.316 µM
[32] = second compound 1 µM, first compound 1 µM
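Further: spheroids exposed to the agents for seven days before the readout.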

C=CC(=O)Nc1cc(Nc2nccc(-c3cn(C)c4ccccc34)n2)c(OC)cc1N(C)CCN(C)C + C=CC(=O)N1CCN(c2nc(OCC3CCCN3C)nc3c(F)c(-c4nc(N)cc(C)c4C(F)(F)F)c(Cl)cc23)C(C)C1
IC50 (second compound 0.00316 µM): 838 nM
IC50 (second compound 0.01 µM): > 1000 nM
IC50 (second compound 0.0316 µM): > 1000 nM
IC50 (second compound 0.1 µM): > 1000 nM
IC50 (second compound 0.316 µM): 894 nM
IC50 (second compound 1 µM): > 1000 nM
viability, T/C (second compound 0.00316 µM, first compound 0.00316 µM): 104%
viability, T/C (second compound 0.00316 µM, first compound 0.01 µM): 90.8%
viability, T/C [1]: 95.3%
viability, T/C [2]: 94.9%
viability, T/C [3]: 70.3%
viability, T/C [4]: 46.3%
viability, T/C (second compound 0.01 µM, first compound 0.00316 µM): 94.1%
viability, T/C (second compound 0.01 µM, first compound 0.01 µM): 83.7%
viability, T/C [5]: 79.5%
viability, T/C [6]: 100%
viability, T/C [7]: 57.9%
viability, T/C [8]: 56%
viability, T/C [9]: 113%
viability, T/C [10]: 100%
viability, T/C [11]: 95.3%
viability, T/C [12]: 69.6%
viability, T/C [13]: 59.2%
viability, T/C [14]: 59.4%
viability, T/C [15]: 108%
viability, T/C [16]: 86.8%
viability, T/C [17]: 89.5%
viability, T/C [18]: 77.5%
viability, T/C [19]: 69.6%
viability, T/C [20]: 52.7%
viability, T/C [21]: 100%
viability, T/C [22]: 107%
viability, T/C [23]: 98.8%
viability, T/C [24]: 70.8%
viability, T/C [25]: 67.7%
viability, T/C [26]: 46%
viability, T/C [27]: 105%
viability, T/C [28]: 104%
viability, T/C [29]: 94.2%
viability, T/C [30]: 67%
viability, T/C [31]: 58.6%
viability, T/C [32]: 55.9%

CC(C)NCC(C(=O)N1CCN(c2ncnc3c2C(C)CC3O)CC1)c1ccc(Cl)cc1 (stereo unspecified) + C=CC(=O)N1CCN(c2nc(OCC3CCCN3C)nc3c(F)c(-c4nc(N)cc(C)c4C(F)(F)F)c(Cl)cc23)C(C)C1
IC50 (second compound 0.00316 µM): 1310 nM
IC50 (second compound 0.01 µM): 1960 nM
IC50 (second compound 0.0316 µM): 1410 nM
IC50 (second compound 0.1 µM): 1540 nM
IC50 (second compound 0.316 µM): 1500 nM
IC50 (second compound 1 µM): 927 nM
viability, T/C [1]: 116%
viability, T/C [2]: 104%
viability, T/C [3]: 96.6%
viability, T/C [4]: 52%
viability, T/C (second compound 0.00316 µM, first compound 3.16 µM): 41.7%
viability, T/C (second compound 0.00316 µM, first compound 10 µM): 40.8%
viability, T/C [5]: 89.6%
viability, T/C [6]: 100%
viability, T/C [7]: 69.1%
viability, T/C [8]: 61.1%
viability, T/C (second compound 0.01 µM, first compound 3.16 µM): 44.2%
viability, T/C (second compound 0.01 µM, first compound 10 µM): 40.9%
viability, T/C [11]: 98.6%
viability, T/C [12]: 97.3%
viability, T/C [13]: 73.9%
viability, T/C [14]: 54%
viability, T/C (second compound 0.0316 µM, first compound 3.16 µM): 43.6%
viability, T/C (second compound 0.0316 µM, first compound 10 µM): 35.5%
viability, T/C [17]: 104%
viability, T/C [18]: 95.1%
viability, T/C [19]: 76.2%
viability, T/C [20]: 52.9%
viability, T/C (second compound 0.1 µM, first compound 3.16 µM): 45.1%
viability, T/C (second compound 0.1 µM, first compound 10 µM): 37.7%
viability, T/C [23]: 90.2%
viability, T/C [24]: 95.9%
viability, T/C [25]: 82.6%
viability, T/C [26]: 53.8%
viability, T/C (second compound 0.316 µM, first compound 3.16 µM): 44.8%
viability, T/C (second compound 0.316 µM, first compound 10 µM): 39.6%
viability, T/C [29]: 98.9%
viability, T/C [30]: 87.7%
viability, T/C [31]: 81.5%
viability, T/C [32]: 46.9%
viability, T/C (second compound 1 µM, first compound 3.16 µM): 43.5%
viability, T/C (second compound 1 µM, first compound 10 µM): 41.1%

O=C(c1ccc(F)c(F)c1Nc1ccc(I)cc1F)N1CC(O)([C@@H]2CCCCN2)C1 + C#Cc1c(F)ccc2cc(O)cc(-c3ncc4c(N5CC6CCC(C5)N6)nc(OCC56CCCN5CC(F)C6)nc4c3F)c12
IC50 (second compound 0.0316 µM): 92.7 nM
IC50 (second compound 0.1 µM): 54.7 nM
IC50 (second compound 0.316 µM): 106 nM
IC50 (second compound 1 µM): < 3.16 nM
IC50 (second compound 3.16 µM): < 3.16 nM
IC50 (second compound 10 µM): < 3.16 nM
viability, T/C [9]: 88.1%
viability, T/C [10]: 90.7%
viability, T/C [11]: 60.7%
viability, T/C [12]: 52.7%
viability, T/C [13]: 25.6%
viability, T/C [14]: 7.56%
viability, T/C [15]: 70.9%
viability, T/C [16]: 70.6%
viability, T/C [17]: 63%
viability, T/C [18]: 34.6%
viability, T/C [19]: 24%
viability, T/C [20]: 8.72%
viability, T/C [21]: 62.3%
viability, T/C [22]: 60.1%
viability, T/C [23]: 66.6%
viability, T/C [24]: 49.9%
viability, T/C [25]: 23.8%
viability, T/C [26]: 8.41%
viability, T/C [27]: 50.1%
viability, T/C [28]: 39.8%
viability, T/C [29]: 51.2%
viability, T/C [30]: 43.4%
viability, T/C [31]: 19.1%
viability, T/C [32]: 6.71%
viability, T/C (second compound 3.16 µM, first compound 0.00316 µM): 34.5%
viability, T/C (second compound 3.16 µM, first compound 0.01 µM): 31.5%
viability, T/C (second compound 3.16 µM, first compound 0.0316 µM): 31.6%
viability, T/C (second compound 3.16 µM, first compound 0.1 µM): 21.4%
viability, T/C (second compound 3.16 µM, first compound 0.316 µM): 12.8%
viability, T/C (second compound 3.16 µM, first compound 1 µM): 5.39%
viability, T/C (second compound 10 µM, first compound 0.00316 µM): 26%
viability, T/C (second compound 10 µM, first compound 0.01 µM): 22.1%
viability, T/C (second compound 10 µM, first compound 0.0316 µM): 11.9%
viability, T/C (second compound 10 µM, first compound 0.1 µM): 11.9%
viability, T/C (second compound 10 µM, first compound 0.316 µM): 8.98%
viability, T/C (second compound 10 µM, first compound 1 µM): 2.85%
